Ends that are not written are not given here.
Tests used:
facial blood flow [1] = conditions: marmoset, electrical stimulation of the trigeminal ganglion (Doods et al. 2000); cited from earlier work
[2] = clinical trials (Olesen et al. 2004); cited from earlier work
[3] = tested on: headache induced by CGRP infusion; conditions: control group (Petersen et al. 2005); cited from earlier work
[4] = tested on: diameter of the middle meningeal artery; conditions: rats, electrical stimulation of the dura mater, prior administration (Williamson et al. 1997); cited from earlier work
facial blood flow [5] = conditions: rat, trigeminal ganglion stimulation (Escott et al. 1995); cited from earlier work
[6] = target: T1, recombinant human CL receptor/RAMP1 (Homo sapiens, UniProt O60894+Q16602); assay: Recombinant receptor functional assay (cAMP after human α-CGRP stimulation); format: cell-based; conditions: HEK 293 cells, 0.3 nM human α-CGRP
T1 construct: expressed in transfected cells
T1 sequence (Q16602 23-461): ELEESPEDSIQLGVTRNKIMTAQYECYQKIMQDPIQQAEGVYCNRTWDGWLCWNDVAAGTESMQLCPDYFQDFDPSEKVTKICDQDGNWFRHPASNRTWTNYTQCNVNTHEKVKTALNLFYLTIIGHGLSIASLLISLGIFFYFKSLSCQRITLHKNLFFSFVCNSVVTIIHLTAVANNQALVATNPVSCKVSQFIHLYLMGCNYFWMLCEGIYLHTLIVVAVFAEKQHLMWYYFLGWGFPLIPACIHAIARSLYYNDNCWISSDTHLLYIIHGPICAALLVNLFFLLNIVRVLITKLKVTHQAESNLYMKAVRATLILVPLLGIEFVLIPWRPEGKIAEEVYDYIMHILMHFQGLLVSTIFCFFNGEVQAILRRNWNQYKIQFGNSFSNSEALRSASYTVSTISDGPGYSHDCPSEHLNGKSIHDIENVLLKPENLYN
T1 sequence (O60894 27-148): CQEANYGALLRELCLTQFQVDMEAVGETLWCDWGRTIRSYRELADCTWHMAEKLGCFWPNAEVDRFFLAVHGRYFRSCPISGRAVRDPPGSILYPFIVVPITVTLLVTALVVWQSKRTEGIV
Experimental: (§1) RECOMBINANT RECEPTOR: Human CL receptor (Genbank accession number L76380) was subcloned into the expression vector pIREShyg2 (BD Biosciences Clontech) as a 5′NheI and 3′ PmeI fragment. Human RAMP I (Genbank accession number AJ001014) was subcloned into the expression vector pIRESpuro2 (BD Biosciences Clontech) as a 5′NheI and 3′NotI fragment. HEK 293 cells (human embryonic kidney cells; ATCC #CRL-1573) were cultured in DMEM with 4.5 g/L glucose, 1 mM sodium pyruvate and 2 mM glutamine supplemented with 10% fetal bovine serum (FBS), 100 units/mL penicillin and 100 μg/mL streptomycin, and maintained at 37° C. and 95% humidity. Cells were subcultured by treatment with 0.25% trypsin with 0.1% EDTA in HBSS. Stable cell line generation was accomplished by co-transfecting 10 μg of DNA with 30 μg Lipofectamine 2000 (Invitrogen) in 75 cm^2 flasks. CL receptor and RAMP I expression constructs were co-transfected in equal amounts. […]
RECOMBINANT RECEPTOR FUNCTIONAL ASSAY: Cells were plated in complete growth medium at 85,000 cells/well in 96-well poly-D-lysine coated plates (Corning) and cultured for ˜19 h before assay. […] Dose response curves were plotted and IC50 values determined from a 4-parameter logistic fit as defined by the equation y=((a−d)/(1+(x/c)^b)+d, where y=response, x=dose, a=max response, d=min response, c=inflection point and b=slope.

[7] = target: T2, CGRP receptors in SK-N-MC cell membranes (Homo sapiens, UniProt O60894+Q16602); assay: Native receptor binding assay (125I-CGRP, SK-N-MC cell membranes); conditions: 10 pM 125I-CGRP
T2 construct: receptors in SK-N-MC cell membranes; endogenous in cells; host or cells: SK-N-MC cell membranes
T2 sequence (Q16602 23-461): as the sequence (Q16602 23-461) above
T2 sequence (O60894 27-148): as the sequence (O60894 27-148) above
Experimental: NATIVE RECEPTOR BINDING ASSAY: The binding of ^125I-CGRP to receptors in SK-N-MC cell membranes was carried out essentially as described (Edvinsson et al. (2001) Eur. J. Pharmacal. 415, 39-44). Briefly, membranes (25 μg) were incubated in 1 mL of binding buffer [10 mM HEPES, pH 7.4, 5 mM MgCl2 and 0.2% bovine serum albumin (BSA)] containing 10 pM ^125I-CGRP and antagonist. After incubation at room temperature for 3 h, the assay was terminated by filtration through GFB glass fibre filter plates (PerkinElmer) that had been blocked with 0.5% polyethyleneimine for 3 h. The filters were washed three times with ice-cold assay buffer (10 mM HEPES, pH 7.4 and 5 mM MgCl2), then the plates were air dried. Scintillation fluid (50 μL) was added and the radioactivity was counted on a Topeount (Packard Instrument). Data analysis was carried out by using Prism and the Ki was determined by using the Cheng-Prusoff equation (Cheng & Prusoff (1973) Biochem. Pharmacol. 22, 3099-3108).

[8] = target: T1, recombinant human CL receptor/RAMP1; assay: Recombinant receptor binding assay (125I-hCGRP); conditions: recombinant human CL receptor/RAMP1 membranes, 10 pM 125I-hCGRP
Experimental: as §1, with “amounts. Twenty-four hours after transfection the cells were diluted and selective medium (growth medium+300 μg/mL hygromycin and 1 μg/mL puromycin) was added the following day. A clonal cell line was generated by single cell deposition utilizing a FACS Vantage SE (Becton Dickinson). Growth medium was adjusted to 150 μg/mL hygromycin and 0.5 μg/mL puromycin for cell propagation.” for “amounts.”

## NCCCC[C@H](NC(=O)[C@@H](Cc1cc(Br)c(O)c(Br)c1)NC(=O)N1CCC(N2Cc3ccccc3NC2=O)CC1)C(=O)N1CCN(c2ccncc2)CC1 [BIBN4096BS]
Facial blood flow [1]
  effect on increase in facial blood flow: could be blocked
[2]
  treating acute attacks of migraine: effective
[3]
  prevention of headache induced by CGRP infusion: able to prevent headache

## CGRP(8-37): a peptide CGRP antagonist; fragment of CGRP that lacks seven N-terminal amino acid residues (VTHRLAGLLSRSGGVVKNNFVPTNVGSKAF; ends and bridges not checked; UniProt P06881 90-119, looked up, fragment)
[4]
  effect on increased diameter of the middle meningeal artery: blocked
Facial blood flow [5]
  effect on increased facial blood flow: inhibited

## CC(C)(O)c1cnc2n1Cc1c(cc(Cl)c3[nH]ncc13)C[C@H]2NC(=O)c1ccc2c(c1)CC1(C2)C(=O)Nc2ncccc21 (stereo partly drawn) [Example 4, N-[(7R)-4-chloro-10-(1-hydroxy-1-methylethyl)-3,6,7,12-tetrahydroimidazo[1′,2′:1,7]azepino[3,4-e]indazol-7-yl]-2′-oxo-1,1′,2′,3-tetrahydrospiro[indene-2,3′-pyrrolo[2,3-b]pyridine]-5-carboxamide]
[6]
  IC50: < 1000 nM
[7]
  Ki: < 1000 nM
[8]
  Ki: < 1000 nM
